Measurements as given in the NIST ThermoML archive (doi:10.1016/j.jct.2019.02.012).

Assay: mn = molality of the nth substance listed, in mol/kg
Conditions: 100 kPa, Liquid, Pycnometric method

O=C(O)[C@@H]1CCCN1 [L-proline] + O
mass density [kg/m3]
Conditions | 298.15 K | 303.15 K | 308.15 K | 313.15 K | 318.15 K
m1 = 0.025 | 997.86 | 996.45 | 994.82 | 992.99 | 991.02
m1 = 0.05 | 998.65 | 997.24 | 995.6 | 993.77 | 991.79
m1 = 0.075 | 999.43 | 998.01 | 996.37 | 994.53 | 992.55
m1 = 0.1 | 1000.2 | 998.77 | 997.12 | 995.28 | 993.29
m1 = 0.125 | 1000.96 | 999.52 | 997.86 | 996.01 | 994.02

CN(C)C(=N)NC(=N)N.Cl [N,N-dimethylimidodicarbonimidic diamide hydrochloride] + O
mass density [kg/m3]
Conditions | 298.15 K | 303.15 K | 308.15 K | 313.15 K | 318.15 K
m1 = 0.05 | 998.89 | 997.46 | 995.83 | 993.99 | 992.01
m1 = 0.1 | 1000.77 | 999.32 | 997.67 | 995.82 | 993.83
m1 = 0.15 | 1002.66 | 1001.21 | 999.56 | 997.69 | 995.69
m1 = 0.2 | 1004.6 | 1003.12 | 1001.46 | 999.59 | 997.6
